Our source for the MIC values is DBAASP.

Values after ≈ are worked out from the molar mass of the structure shown.

Among the test systems are Staphylococcus aureus; Acinetobacter baumannii; Escherichia coli DC2; Escherichia coli UB1005.
What all share (assay): ≥ marks a high value that may be exact or a test limit, other limits are often not marked, values filed in µg/mL are converted to µM
In assay [1] the test system is Bacillus subtilis ATCC 6633.
Assay [2] deals with Candida albicans ATCC 20032.
For assay [3], the system named is Escherichia coli ATCC 25922.
Assay [4] has as its system Staphylococcus aureus ATCC 25923.
Assay [5] relates to Candida albicans ATCC 90028.
Assay [6] relates to Enterobacter cloacae NHTCC 53001.
Assay [7] deals with Enterococcus faecalis ATCC 29212.
Assay [8] has as its system Klebsiella pneumoniae KK3 9904.
Assay [9] concerns Proteus mirabilis ATCC 25933.
Assay [10] deals with Pseudomonas aeruginosa ATCC 27853.
Assay [11] has as its system Staphylococcus aureus NCTC 8325.
Assay [12] relates to Staphylococcus epidermidis RP62A.
Assay [13] relates to Escherichia coli ATCC 25726.
Assay [14] deals with Klebsiella pneumoniae ATCC 700603.
The subject of assay [15] is Staphylococcus aureus ATCC 29213.
Assay [16] has as its system Staphylococcus epidermidis RP62A/1.
Assay [17] has as its system Stenotrophomonas maltophilia.
The test system of assay [18] is Corynebacterium xerosis C875.
Assay [19] deals with Staphylococcus epidermidis C621.

Broadly, the MIC is the smallest concentration in the dilution series that meets the test's criterion for growth inhibition. High values mean a need for much substance, low ones inhibition by little substance. On to `CC[C@H](C)[C@@H]1NC(=O)[C@H](CO)NC(=O)[C@H](CCCCN)NC(=O)[C@H]([C@@H](C)O)NC(=O)[C@H](Cc2c[nH]c3ccccc23)NC(=O)[C@@H](NC(=O)CNC(=O)[C@H](CCCN=C(N)N)NC(=O)[C@H](CC(C)C)NC(=O)[C@H](C)NC(=O)[C@H](C)N)CSSC[C@@H](C(=O)N2CCC[C@H]2C(=O)NCC(=O)N[C@@H](CCCCN)C(=O)N[C@@H](CCCN=C(N)N)C(=O)O)NC(=O)[C@@H]2CCCN2C(=O)[C@H](CCCCN)NC(=O)[C@@H]2CCCN2C(=O)[C@@H]2CCCN2C1=O` [AALRGCWTKSIPPKPCPGKR], for which the MIC in assay [1] was at least 46.2 µM; in assay [2], at least 46.2 µM; in [3] it was 46.2 µM (≈ 100 µg/mL); in assay [4], 5.8 µM (≈ 12.6 µg/mL).

For the compound `CC[C@H](C)[C@H](NC(=O)[C@H](Cc1cnc[nH]1)NC(=O)CNC(=O)[C@H](C)NC(=O)[C@@H](NC(=O)[C@@H](NC(=O)[C@H](CCCCN)NC(=O)[C@@H](NC(=O)[C@H](Cc1ccccc1)NC(=O)[C@H](C)NC(=O)[C@H](CCCCN)NC(=O)[C@H](C)NC(=O)[C@H](C)NC(=O)CNC(=O)[C@H](CCCCN)NC(=O)[C@H](CC(C)C)NC(=O)[C@@H](NC(=O)[C@H](CC(=O)O)NC(=O)[C@H](CCCN=C(N)N)NC(=O)[C@H](Cc1ccccc1)NC(=O)CN)C(C)C)C(C)C)[C@@H](C)O)C(C)C)C(=O)N[C@@H](C)C(=O)N[C@@H](CC(N)=O)C(N)=O` [GFRDVLKGAAKAFVKTVAGHIAN], the MIC was at least 100 µM in [5]; 6 µM (≈ 14.2 µg/mL) in [6]; over 100 µM in assay [7]; 3 µM (≈ 7.11 µg/mL) in assay [3]; 6 µM (≈ 14.2 µg/mL) in [8]; at least 100 µM in assay [9]. Also, the MIC was 25 µM (≈ 59.2 µg/mL) in assay [10], at least 100 µM in [11], 32 µM (≈ 75.8 µg/mL) against Staphylococcus aureus and at least 50 µM in [12].

Regarding `CC[C@H](C)[C@H](NC(=O)CN)C(=O)NCC(=O)NCC(=O)N[C@H](C(=O)N[C@@H](CC(C)C)C(=O)N[C@@H](CC(C)C)C(=O)N[C@@H](CO)C(=O)N[C@@H](C)C(=O)NCC(=O)N[C@@H](CCCCN)C(=O)N[C@@H](C)C(=O)N[C@@H](C)C(=O)N[C@@H](CC(C)C)C(=O)N[C@@H](CCCCN)C(=O)NCC(=O)N[C@@H](CC(C)C)C(=O)N[C@H](C(=O)N[C@@H](CCCCN)C(=O)N[C@H](C(=O)N[C@@H](CC(C)C)C(=O)N[C@@H](C)C(=O)N[C@@H](CCC(=O)O)C(=O)N[C@@H](CCCCN)C(=O)N[C@@H](Cc1ccc(O)cc1)C(=O)N[C@@H](C)C(=O)N[C@@H](CC(N)=O)C(N)=O)C(C)C)[C@@H](C)O)C(C)C` [GIGGVLLSAGKAALKGLTKVLAEKYAN], the MIC was at least 37.8 µM in assay [1], at least 37.8 µM in [2], over 37.8 µM in [3] and 7.11 µM (≈ 18.8 µg/mL) in assay [4].

Regarding `CC[C@H](C)[C@H](NC(=O)CN)C(=O)N[C@@H](CC(C)C)C(=O)N[C@@H](CO)C(=O)N[C@@H](CO)C(=O)N[C@@H](Cc1ccccc1)C(=O)N[C@@H](CCCCN)C(=O)NCC(=O)N[C@H](C(=O)N[C@@H](C)C(=O)N[C@@H](CCCCN)C(=O)NCC(=O)N[C@H](C(=O)N[C@@H](C)C(=O)N[C@@H](CCCCN)C(=O)N[C@@H](CC(N)=O)C(=O)N[C@@H](CC(C)C)C(=O)N[C@@H](C)C(=O)NCC(=O)N[C@@H](CCCCN)C(=O)N[C@@H](CC(C)C)C(=O)N[C@@H](CC(C)C)C(=O)N[C@@H](CC(=O)O)C(=O)N[C@@H](CCC(=O)O)C(=O)N[C@@H](CC(C)C)C(=O)N[C@@H](CCCCN)C(=O)N[C@H]1CSSC[C@@H](C(=O)O)NC(=O)CNC(=O)[C@H]([C@@H](C)O)NC(=O)[C@H]([C@@H](C)CC)NC(=O)[C@H](CCCCN)NC1=O)C(C)C)C(C)C` [GILSSFKGVAKGVAKNLAGKLLDELKCKITGC], the minimum inhibitory concentration (MIC) in assay [5] is at least 40 µM; in assay [6], 5 µM (≈ 16.3 µg/mL); in assay [7], over 40 µM; in assay [3], 5 µM (≈ 16.3 µg/mL); in assay [8], 10 µM (≈ 32.6 µg/mL); in assay [9], at least 40 µM. In addition, the figures for the MIC in [10], in assay [11] and in assay [12] were 5 µM (≈ 16.3 µg/mL), 20 µM (≈ 65.2 µg/mL) and 20 µM (≈ 65.2 µg/mL), respectively.

As to `CC[C@H](C)[C@H](N)C(=O)N[C@@H](CCCCN)C(=O)N[C@@H](CC(C)C)C(=O)N[C@@H](CO)C(=O)N[C@@H](CCCCN)C(=O)N[C@@H](CCC(=O)O)C(=O)N[C@H](C(=O)N[C@@H](CCCCN)C(=O)N[C@@H](CC(=O)O)C(=O)N[C@@H](CC(N)=O)C(=O)N[C@@H](CC(C)C)C(=O)N[C@@H](CCCCN)C(=O)N[C@@H](CCCCN)C(=O)N[C@H](C(=O)N[C@@H](CC(C)C)C(=O)N[C@@H](CCCCN)C(=O)NCC(=O)N[C@@H](C)C(=O)N[C@H](C(=O)N[C@@H](CCCCN)C(=O)NCC(=O)N[C@@H](C)C(=O)N[C@H](C(=O)N[C@@H](C)C(=O)N[C@H](C(=O)N[C@@H](C)C(=O)N[C@@H](CCCCN)C(=O)N[C@@H](CCSC)C(=O)N[C@H](C(N)=O)C(C)C)C(C)C)[C@@H](C)CC)[C@@H](C)CC)C(C)C)[C@@H](C)O` [IKLSKETKDNLKKVLKGAIKGAIAVAKMV], the MIC with Acinetobacter baumannii is 6.25 µM (≈ 19.3 µg/mL); in assay [5], at least 50 µM; in assay [13], 12.5 µM (≈ 38.7 µg/mL); in [14] it was 12.5 µM (≈ 38.7 µg/mL); in [9] it was at least 100 µM; in assay [10], 25 µM (≈ 77.4 µg/mL). The MIC in assay [4] was found to be 6.25 µM (≈ 19.3 µg/mL); in [15] it was 6.25 µM (≈ 19.3 µg/mL); in assay [16] it was 1.6 µM (≈ 4.95 µg/mL); in assay [12], 1.6 µM (≈ 4.95 µg/mL); in assay [17] it was 3.1 µM (≈ 9.59 µg/mL).

As to `C[C@H](NC(=O)[C@H](C)NC(=O)[C@H](C)NC(=O)[C@H](Cc1ccc(O)cc1)NC(=O)[C@H](C)NC(=O)[C@H](C)NC(=O)[C@H](C)NC(=O)[C@H](CCCCN)NC(=O)[C@@H](N)CCCCN)C(=O)N[C@@H](C)C(=O)N[C@@H](C)C(=O)N[C@@H](Cc1ccc(O)cc1)C(=O)N[C@@H](C)C(=O)N[C@@H](C)C(=O)N[C@@H](Cc1c[nH]c2ccccc12)C(=O)N[C@@H](C)C(=O)N[C@@H](C)C(=O)N[C@@H](Cc1ccc(O)cc1)C(=O)N[C@@H](C)C(=O)N[C@@H](C)C(=O)N[C@@H](C)C(=O)N[C@@H](CCCCN)C(=O)N[C@@H](CCCCN)C(=O)N[C@@H](CCCCN)C(=O)N[C@@H](CCCCN)C(N)=O` [KKAAAYAAAAAYAAWAAYAAAKKKK], the MIC in [18] was 0.25 µM (≈ 0.632 µg/mL); in the assay with Escherichia coli DC2, 16 µM (≈ 40.4 µg/mL); in the assay on Escherichia coli UB1005, at least 32 µM; in assay [19] it was 8 µM (≈ 20.2 µg/mL).

Regarding `CC[C@H](C)[C@H](NC(=O)[C@H](CCCCN)NC(=O)[C@H](C)NC(=O)CNC(=O)[C@@H](NC(=O)[C@@H](N)CO)[C@@H](C)CC)C(=O)N[C@@H](CC(C)C)C(=O)NCC(=O)NCC(=O)N[C@H](C(=O)N[C@@H](CCCCN)C(=O)N[C@H](C(=O)N[C@@H](Cc1ccccc1)C(=O)N[C@@H](Cc1ccccc1)C(=O)N[C@@H](CCCCN)C(=O)NCC(=O)N[C@@H](C)C(=O)N[C@@H](CC(C)C)C(=O)N[C@@H](CCCCN)C(=O)N[C@@H](CCC(=O)O)C(=O)N[C@@H](CC(C)C)C(=O)N[C@@H](C)C(=O)N[C@@H](Cc1ccccc1)C(=O)N[C@H](C(=O)N[C@@H](Cc1ccc(O)cc1)C(=O)N[C@@H](CC(C)C)C(=O)N[C@@H](CCC(N)=O)C(N)=O)[C@@H](C)O)[C@@H](C)O)C(C)C` [SIGAKILGGVKTFFKGALKELAFTYLQ], the MIC was at least 34.5 µM in assay [1], at least 34.5 µM in assay [2], over 34.5 µM in [3] and 12.9 µM (≈ 37.5 µg/mL) in assay [4].
